{"source": "patent US10300067B2", "about": "“Tetrahydropyridopyrimidine compound or salt thereof” (TAIHO PHARMACEUTICAL CO., LTD., priority 2014, dated 2019)", "key": {"[1]": {"test_system": "Human prostate cancer cells LNCaP", "test": "Androgen-dependent inhibitory activity on proliferation of prostate cancer cells", "format": "cell-based", "conditions": "50% proliferation inhibition concentration, DHT 10 nmol/L, 72 hours, read-out: GI50 value"}, "human androgen receptor": {"target": "human androgen receptor (Homo sapiens (Human), UniProt P10275)", "sequence (P10275 whole entry)": "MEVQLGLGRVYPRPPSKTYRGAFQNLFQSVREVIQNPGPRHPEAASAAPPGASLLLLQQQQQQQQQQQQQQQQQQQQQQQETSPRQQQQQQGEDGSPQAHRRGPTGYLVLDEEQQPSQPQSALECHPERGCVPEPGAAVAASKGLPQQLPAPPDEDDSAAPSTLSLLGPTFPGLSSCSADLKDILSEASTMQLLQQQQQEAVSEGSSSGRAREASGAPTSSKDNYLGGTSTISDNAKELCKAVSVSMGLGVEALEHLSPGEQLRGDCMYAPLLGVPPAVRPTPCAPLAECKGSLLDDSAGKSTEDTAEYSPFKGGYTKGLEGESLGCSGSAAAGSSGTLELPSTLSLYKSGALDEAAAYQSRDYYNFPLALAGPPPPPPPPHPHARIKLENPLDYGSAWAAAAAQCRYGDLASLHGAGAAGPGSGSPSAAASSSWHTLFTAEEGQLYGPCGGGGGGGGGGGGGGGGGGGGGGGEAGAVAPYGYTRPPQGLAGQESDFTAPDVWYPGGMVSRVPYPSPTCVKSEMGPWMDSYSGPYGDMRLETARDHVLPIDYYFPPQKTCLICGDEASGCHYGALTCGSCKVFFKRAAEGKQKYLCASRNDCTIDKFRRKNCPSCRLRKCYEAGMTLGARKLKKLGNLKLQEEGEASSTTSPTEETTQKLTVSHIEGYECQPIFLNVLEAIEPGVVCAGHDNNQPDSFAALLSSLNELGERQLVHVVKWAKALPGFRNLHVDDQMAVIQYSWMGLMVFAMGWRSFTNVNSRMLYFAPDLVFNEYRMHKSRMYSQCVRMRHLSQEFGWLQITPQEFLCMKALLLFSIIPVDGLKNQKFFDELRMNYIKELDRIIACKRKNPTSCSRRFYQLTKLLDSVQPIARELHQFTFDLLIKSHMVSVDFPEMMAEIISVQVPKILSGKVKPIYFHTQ", "test": "Antagonist activity for AR (pMMTV-luc reporter transcription activity in transfected COS-7 cells, DHT 1 nmol/L)", "format": "cell-based", "conditions": "50% transcription activity inhibition concentration; COS-7 cells with pMMTV-luc and pEX-hAR, DHT 1 nmol/L, 24 hours", "procedure,_shortened": "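COS-7 cells co-transfected with pMMTV-luc reporter and CMV-driven human AR expression vector, cultured overnight in phenol red-free RPMI1640 with 10% charcoal-treated FBS. Antagonism measured against 1 nmol/L DHT by luciferase transcription activity.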"}, "LNCaP-Xeno-IL-6 cells": {"test_system": "LNCaP-Xeno-IL-6 cells", "test": "Anti-tumor activity in in vivo model of castration resistant prostate cancer", "conditions": "castrated male nude mice, oral, every day for 2 weeks", "description": "From the AR positive human prostate cancer cells LNCaP, castration resistant prostate cancer cells, LNCaP-Xeno-IL-6 cells, were established based on the scientific paper (Clin Cancer Res, 2001 7:2941-8) (in the paper, the cells have been reported as LNCaP-IL-6+ cells) and used for the in vivo test. The LNCaP-Xeno-IL-6 cells were implanted subcutaneously in male nude mice, and the castration treatment was performed when the tumor volume reached about 200 mm^3. After the castration, the vehicle only (0.5% HPMC) or the compound of Examples suspended in the vehicle was orally administered to the mice every day for 2 weeks. The compound of Examples was administered such that there was no difference in an exposure amount between the compounds. After the administration for 2 weeks, the tumor volume of each mouse was recorded and the average tumor volume of the group administered with the evaluation compound relative to the average tumor volume of the group administered only with the vehicle, that is, T/C (%), was calculated based on the following formula. T/C (%)=(Average tumor volume of evaluation compound group)/(Average tumor volume of vehicle administration group)"}, "[2]": {"test_system": "AR positive human prostate cancer cells VCaP", "test": "Agonist activity for AR (cell proliferation rate of VCaP cells)", "format": "cell-based", "conditions": "72 hours, 2 to 10000 nmol/L, more than 10% at any concentration = agonist activity for AR", "procedure,_shortened": "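VCaP cells seeded at 1.5×10^4/well in phenol-red-free RPMI1640 with 5% DCC-FBS, then exposed 72 h to compound at 2–10000 nmol/L (9 concentrations). Viable cells counted by CellTiter-Glo; proliferation rate (%) relative to medium-only control, agonist activity called when >10% at any concentration.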"}, "androgen receptor": {"target": "androgen receptor (Homo sapiens (Human), UniProt P10275, T878A)", "sequence (P10275 whole entry T878A)": "as the sequence (P10275 whole entry) above, with T878A counted along it", "test": "Activity of reducing expression level of androgen receptor (Western blotting of LNCaP cell lysate)", "format": "cell-based", "conditions": "48 hours", "procedure,_shortened": "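LNCaP prostate cancer cells (AR T878A) in phenol red-free RPMI1640 with 5% FBS treated with compound at final 10000 nmol/L for 48 h. Cell lysates analysed by Western blot with anti-AR antibody; band quantified by chemiluminescence.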"}}, "data": [{"smiles": "CC(C)(O)c1ccc(Nc2ncnc3c2CCN(c2ccc(C#N)c(Cl)c2)C3)nn1", "note": "[Example 6, 2-chloro-4-(4-((6-(2-hydroxypropan-2-yl)pyridazin-3-yl)amino)-5,6-dihydropyrido[3,4-d]pyrimidin-7 (8H)-yl)benzonitrile]", "values": [{"measurement": "GI50", "setting": "[1]", "result": 400, "unit": "nM"}, {"measurement": "IC50", "setting": "human androgen receptor", "result": 70, "unit": "nM"}, {"measurement": "T/C (%)", "setting": "LNCaP-Xeno-IL-6 cells; daily dose 100 mg/kg/day", "result": 29, "unit": "%"}, {"measurement": "Cell proliferation rate (%)", "setting": "[2]", "result": "−0.7", "unit": "%"}, {"measurement": "10 μM AR expression reducing activity", "setting": "androgen receptor", "result": "reduced (When the AR expression reducing activity is 50% or more, it is described as “reduced”)"}]}, {"smiles": "CC(C)(O)c1ccc(Nc2ncnc3c2CCN(c2ccc(C#N)c(C(F)(F)F)c2)C3)nc1", "note": "[Example 7, 4-(4-((5-(2-hydroxypropan-2-yl)pyridin-2-yl)amino)-5,6-dihydropyrido[3,4-d]pyrimidin-7(8H)-yl)-2-(trifluoromethyl)benzonitrile]", "values": [{"measurement": "GI50", "setting": "[1]", "result": 500, "unit": "nM"}, {"measurement": "IC50", "setting": "human androgen receptor", "result": 160, "unit": "nM"}, {"measurement": "T/C (%)", "setting": "LNCaP-Xeno-IL-6 cells; daily dose 30 mg/kg/day", "result": 49, "unit": "%"}, {"measurement": "Cell proliferation rate (%)", "setting": "[2]", "result": 4.9, "unit": "%"}, {"measurement": "10 μM AR expression reducing activity", "setting": "androgen receptor", "result": "reduced (When the AR expression reducing activity is 50% or more, it is described as “reduced”)"}]}, {"smiles": "CC(C)(O)c1ccc(Nc2ncnc3c2CCN(c2ccc(C#N)c(Cl)c2)C3)nc1", "note": "[Example 9, 2-chloro-4-(4-((5-(2-hydroxypropan-2-yl)pyridin-2-yl)amino)-5,6-dihydropyrido[3,4-d]pyrimidin-7 (8H)-yl)benzonitrile]", "values": [{"measurement": "GI50", "setting": "[1]", "result": 500, "unit": "nM"}, {"measurement": "IC50", "setting": "human androgen receptor", "result": 250, "unit": "nM"}, {"measurement": "T/C (%)", "setting": "LNCaP-Xeno-IL-6 cells; daily dose 15 mg/kg/day", "result": 40, "unit": "%"}, {"measurement": "Cell proliferation rate (%)", "setting": "[2]", "result": "−0.7", "unit": "%"}, {"measurement": "10 μM AR expression reducing activity", "setting": "androgen receptor", "result": "reduced (When the AR expression reducing activity is 50% or more, it is described as “reduced”)"}]}, {"smiles": "N#Cc1ccc(N2CCc3c(ncnc3Nc3ccc(C(=O)NCC(F)(F)F)cn3)C2)cc1C(F)(F)F", "note": "[Example 11, 6-((7-(4-cyano-3-(trifluoromethyl)phenyl)-5,6,7,8,-tetrahydropyrido[3,4-d]pyrimidin-4-yl)amino)-N-(2,2,2-trifluoroethyl)nicotinamide]", "values": [{"measurement": "GI50", "setting": "[1]", "result": 380, "unit": "nM"}, {"measurement": "IC50", "setting": "human androgen receptor", "result": 30, "unit": "nM"}, {"measurement": "T/C (%)", "setting": "LNCaP-Xeno-IL-6 cells; daily dose 200 mg/kg/day", "result": 47, "unit": "%"}, {"measurement": "Cell proliferation rate (%)", "setting": "[2]", "result": 2.9, "unit": "%"}, {"measurement": "10 μM AR expression reducing activity", "setting": "androgen receptor", "result": "reduced (When the AR expression reducing activity is 50% or more, it is described as “reduced”)"}]}]}
